Common to all, as to type: in vivo
Test [1] has as its system skeletal muscle mitochondria. Briefly: Mitochondrial function in skeletal muscle of treated mice (membrane potential, ATP content, COX activity). The procedure:
(§1) C57BL/6J mice of 3, 6, 22, 24, or 30 months of age were obtained from the National Institutes of Aging mouse aging colony. Mice were acclimated for at least one-week prior to sacrifice. 3, and 24-month-old mice were given interperitoneal (IP) injections of 500 mg NMN/kg body weight per day or the equivalent volume of PBS for 7 consecutive days at 5:00 pm and 7:00 am on day 8 and sacrificed 4 hr after last injection. All animal studies followed the guidelines of and were approved by the Harvard Institutional Animal Care and Use Committee
Skeletal muscle mitochondria were isolated as described previously (Frezza et al., Nat. Protoc. 2:287-295 (2007)). Mitochondrial membrane potential, cytochrome c activity and succinate dehydrogenase were determined as described (Brautigan et al., Methods Enzymol. 53:128-164 (1978); Rolo et al., Biochim. Biophys. Acta. 1637:127-132 ([…]); Singer, T. P., Methods Biochem. Anal. 22:123-175 (1974)). ATP content was measured with a commercial kit according to the manufacturer's instructions (Roche).
(§2) C57BL/6J mice of 6, 22, or 30 months of age were obtained from the National Institutes of Aging mouse aging colony. Additionally 22 months old caloric restricted mice were also obtained from the National Institutes of Aging mouse aging colony. EGLN1 KO, SIRT1 KO and SIRT1 OE mice were generated as previously described (Minamishima et al., 2008; Price et al., 2012). Mice were acclimated for at least one-week prior to sacrifice. 3, 6, 22 and 24-month-old mice were given interperitoneal (IP) injections of 500 mg NMN/kg body weight per day or the equivalent volume of PBS for 7 consecutive days at 5:00 pm and 7:00 am on day 8 and sacrificed 4 hr after last injection.
(§3) Whole body SIRT1 overexpressor (SIRT1-tg) mice of 6 months of age were given interperitoneal (IP) injections of 300 mg DMOG/kg body weight per day or the equivalent volume of PBS for 5 consecutive days.
(§4) Whole body adult-inducible Egln1 knockout mice (Minamishima et al, 2007) were treated with IP injection of tamoxifen for 3 days after which they were allowed to rest. The mice were given interperitoneal (IP) injections of 500 mg NMN/kg body weight per day or the equivalent volume of PBS for 7 consecutive days at 5:00 pm and 7:00 am on day 8 and sacrificed 4 hr after last injection. All animal studies followed the guidelines of and were approved by the Harvard Institutional Animal Care and Use Committee.
Cytochrome c oxidase activity was polarographically determined based on the O2 consumption upon cytochrome c oxidation, as previously described (Brautigan et al., 1978). The reaction was carried out at 25° C. in 1.3 mL of standard respiratory medium (as in mitochondrial respiration) supplemented with 2 μM rotenone, 10 μM oxidized cytochrome c, 0.3 mg TritonX-100. Following addition of the sample, the reaction was initiated by adding 5 mM ascorbate plus 0.25 mM tetramethylphenylene-diamine (TMPD).
ATP content was measured with a commercial kit according to the manufacturer's instructions (Roche).

For test [2], the system named is HIF-1α. Briefly: Immunoblot for HIF-1α in gastrocnemius of treated mice. Here is the method:
as §1
C57BL/6J mice of 6, 22, or 30 months of age were obtained from the National Institutes of Aging mouse aging colony. Additionally 22 months old caloric restricted mice were also obtained from the National Institutes of Aging mouse aging colony. EGLN1 KO, SIRT1 KO and SIRT1 OE mice were generated as previously described (Minamishima et al., 2008; Price et al., 2012). Mice were acclimated for at least one-week prior to sacrifice. […]
Protein extracts from tissue or C2C12 cells were obtained by lysis in ice-cold lysis buffer (150 mM NaCl, 10 mM Tris HCl (pH 7.4), 1 mM EDTA, 1 mM EGTA, 1% Triton X-100, 0.5% NP-40) supplemented with a cocktail of protease and phosphatase inhibitors (Roche). Protein content was determined by the Bradford protein assay (Biorad), and 50 μg proteins were run on SDS-PAGE under reducing conditions. […] The immunostaining was detected using horseradish peroxidase-conjugated anti-rabbit or anti-mouse immunoglobulin for 1 h at room temperature.
Protein extracts from tissue were obtained by lysis in ice-cold lysis buffer (150 mM NaCl, 10 mM Tris HCl (pH 7.4), 1 mM EDTA, 1 mM EGTA, 1% Triton X-100, 0.5% NP-40) supplemented with a cocktail of protease and phosphatase inhibitors (Roche). Protein content was determined by the Bradford protein assay (Biorad), and 50 μg proteins were run on SDS-PAGE under reducing conditions. […] The immunostaining was detected using horseradish peroxidase-conjugated anti-rabbit or anti-mouse immunoglobulin for 1 h at room temperature.

Test [3] concerns mitochondrial-encoded genes (ND1, Cytb, COX1 and ATP6). Briefly: qPCR of mitochondrial-encoded genes in gastrocnemius of treated mice.
Excerpt: as §2, §3, §4
RNA from skeletal muscle tissue and C2C12 cells were extracted with RNeasy mini kit (Qiagen) according to the instructions and quantified using the NanoDrop 1000 spectrophotometer (Thermo Scientific). cDNA was synthesized with the iSCRIP cDNA synthesis kit (BioRad) using 600 ng of RNA. Quantitative RT-PCR reactions were performed using 1 μM of primers and LightCycler® 480 SYBR Green Master (Roche) on an LightCycler® 480 detection system (Roche). Calculations were performed by a comparative method (2-ΔCT) using 18S as an internal control. For mtDNA analysis, total DNA was extracted with DNeasy blood and tissue kit (Qiagen). mtDNA was amplified using primers specific for the mitochondrial cytochrome c oxidase subunit 2 (COX2) gene and normalized to genomic DNA by amplification of the ribosomal protein s18 (rps18) nuclear gene. Primers were designed using the IDT software (IDT) and the primer sequences can be found in Table 1.
RNA from skeletal muscle and aorta were extracted with RNeasy mini kit (Qiagen) according to the instructions and quantified using the NanoDrop 1000 spectrophotometer (Thermo Scientific). cDNA was synthesized with the iSCRIP cDNA synthesis kit (BioRad) using 600 ng of RNA. Quantitative RT-PCR reactions were performed using 1 μM of primers and LightCycler® 480 SYBR Green Master (Roche) on an LightCycler® 480 detection system (Roche). […]
In general terms: Quantitative PCR measures a nucleic acid by following its amplification.

The mark [4] stands for this setting: SIRT1-tg mice, DMOG 300 mg/kg IP per day, 5 days, gastrocnemius.
The mark [5] stands for this setting: Egln1 KO mice treated with NMN 500 mg/kg IP 7 days, compared to WT controls.
Where [6] appears, read: treated 24-month-old mice, NMN 500 mg/kg IP one week, skeletal muscle.

Entries after “also recorded” stand apart in the source; their conditions may differ.

Take `COC(=O)CNC(=O)C(=O)OC` [DMOG, dimethyloxaloylglycine]: the “increase in ATP levels observed in SIRT1-tg mice” value in test [1] (setting [4]) is on record as “abolished”. Moreover, the HIF-1α protein result in test [2] (SIRT1-tg mice, DMOG 300 mg/kg IP per day, 5 days) is reported as “increase HIF-1α”. In addition, in test [3] (setting [4]), the “increase in expression of mitochondrial-encoded genes observed in SIRT1-tg mice” value is “abolished the increase in the expression of mitochondrial-encoded genes”.
In the case of `NC(=O)c1ccc[n+]([C@@H]2O[C@H](COP(=O)([O-])O)[C@@H](O)[C@H]2O)c1` [NMN, nicotinamide mononucleotide], the ATP levels entry in test [1] (6- and 22-month-old mice, NMN one week, gastrocnemius) is “increase in ATP levels”; in test [1] (setting [6]), “increases in ATP levels”. In addition, in test [1] (setting [5]), the “ATP levels in skeletal muscle” value is listed as “did not restore”. In addition, the “ability of NMN to improve mitochondrial function (membrane potential)” value in test [1] (SIRT1 KO mice vs WT, NMN or PBS, skeletal muscle mitochondria) is “lost in animals lacking SIRT1”. Also, the COX activity result in test [1] (old mice, NMN one week, gastrocnemius (FIG. 24H)) is listed as “increase”; in test [1] (setting [6]) it was “increases”. Besides, the mitochondrial membrane potential entry in test [1] (treated 24-month-old mice, NMN 500 mg/kg IP one week, isolated skeletal muscle mitochondria) was “restoration of mitochondrial membrane potential to the levels of the young mice”. Further, in test [2] (3- and 24-month-old mice, NMN 500 mg/kg IP one week), the “HIF-1α protein in muscle” value is “reversed the age-induced increase in HIF-1α in muscle”. The HIF-1α protein accumulation result in test [2] (6- and 22-month-old mice, NMN one week) was “reversed; also recorded: reduced the level of HIF-1α in muscle”. Besides, the “expression of mitochondrial-encoded genes” value in test [3] (22-month-old mice, NMN one week, gastrocnemius) is “restored”. Besides, the “mitochondrial-encoded genes in skeletal muscle” value in test [3] (setting [5]) was “did not restore mitochondrial-encoded genes”. Moreover, the “ability of NMN to induce mitochondrially-encoded genes” value in test [3] (SIRT1 KO mice vs WT, NMN or PBS, gastrocnemius) is on record as “lost in animals lacking SIRT1”.
